pIC50: −log10 of the molar value. Where “and” joins values, the source holds several entries; their conditions need not be identical. Equal entries are not always repeated.
Columns and labels:
[1] = system: TcCBP KO T. cruzi intracellular amastigotes; experiment: microbe, parasite or virus in culture; assay type: cell-based; details: Trypanosoma cruzi, read-out: TcCBP KO IC50
Protocol: The in vitro anti-T. cruzi amastiogote activity assay was performed and optimized based on the protocol described previously. The change in tdTomato fluorescence intensity was determined as a measurement of growth over 72 hours of culture. For assaying drug effects on extracellular amastigotes, trypomastigotes were collected from infected Vero cell cultures and converted in acidic media as previously described. Amastigotes (50,000/well) were incubated with 2-fold serial dilutions of compounds for 48 hours. The ATP production was used as an indication of growth in this case, and was measured by ATPlite Luminescence ATP Detection Assay System (PerkinElmer). Both fluorescence and luminescence were read using a BioTek Synergy Hybrid Multi-Mode reader equipped with the software Gene5 v 2.0 (BioTek). The dose-response curve was generated by […] analysis with GraphPad Prism v9.4.0 (GraphPad Software).
The CBPs knockout was produced using ribonucleoprotein (RNP) complexes as previously described. Briefly, Brazil tdTomato strain epimastigotes were electroporated with RNP complexes containing SaCas9 and an sgRNA targeting CBP gene TcBrA4_0048170, plus a repair template containing stop codons in all three reading frames and the M13 sequence for use as a PCR anchor. The sgRNA targeted the ‘[…]” sequence. After 2 days of recovery, single-cell clones were derived by depositing epimastigotes into a 96-well plate at a density of 0.5 cell/well by using a MoFlo Astrios EQ cell sorter (Beckman Coulter). DNA isolation was performed for clones, and primer pair of 5’-[…]-3’ and 5’- […] -3’ was used for amplifying the wild type allele, while primer pair of M13-F: 5’- […] -3’ and 5’- […] -3’ was used for amplifying the mutant allele.

[2] = NHP health screening: hematology (CBC); assay type: in vivo, rhesus macaques (Macaca mulatta)
Protocol: Under light-anesthesia/sedation, peripheral blood samples were collected from each animal prior to treatment and at 7 time points following. Blood analysis (CBC and serum chemistry assays) and physical exams to evaluate the health of the study animals were performed on each animal prior to the beginning of the study and also at three time points during the treatment protocol (see Supplementary data).

[3] = Mean of treated female rhesus macaques, blood sample of 2018-03-26/27
[4] = Treated rhesus macaques, individual animal, blood sample of 2018-03-26/27
[5] = drug-treatment phase, returned to pre-study values by the final blood draw
[6] = treated female macaques, mid-dosing bleed, Mean
[7] = treated female macaques, post-dosing bleed, Mean

In the case of `Cc1c(C(=O)N[C@H](C(=O)OCC2CCOCC2)C(C)C)ccc2c1B(O)OC2` [AN15368], the pIC50 [1] was 5.60, the “Baso, Mean” value [2, 3] was 0.01 10^3/µL and the “Eos, Mean” value [2, 3] was 0.09056 10^3/µL. The “Hct, Mean” value [2, 3] was 42.7278%, the “Hgb, Mean” value [2, 3] was 13.2278 G/Dl and the “Lymp, Mean” value [2, 3] was 2.112 10^3/µL. For the same compound, the “Mch, Mean” value [2, 3] was 22.4444 Pgs, the “Mchc, Mean” value [2, 3] was 30.9611 G/Dl and the “Mcv, Mean” value [2, 3] was 72.4667 fL. For the same compound, the “Mono, Mean” value [2, 3] was 0.2806 10^3/µL, the “Mpv, Mean” value [2, 3] was 7.333 fL and the “Neut, Mean” value [2, 3] was 3.369 10^3/µL. The “Plt, Mean” value [2, 3] was 334.722 10^3/µL, the “Rbc, Mean” value [2, 3] was 5.902 10^6/µL and the “Rdw, Mean” value [2, 3] was 12.2111%. For the same compound, the “Wbc, Mean” value [2, 3] was 5.862 10^3/µL, the Baso [2, 4] was 0.01 10^3/µL and 0 10^3/µL and the Eos [2, 4] was 0.24 10^3/µL and 0.09 10^3/µL and 0.02 10^3/µL and 0.17 10^3/µL and 0.16 10^3/µL. For the same compound, the Hct [2, 4] was 46.5% and 43.6% and 38.8% and 40.8% and 41.6%, the Hgb [2, 4] was 14.6 G/Dl and 13 G/Dl and 11.7 G/Dl and 13.1 G/Dl and the Lymp [2, 4] was 2.42 10^3/µL and 2.63 10^3/µL and 1.31 10^3/µL and 3.46 10^3/µL and 2.68 10^3/µL. For the same compound, the Mch [2, 4] was 21.8 Pgs and 21.4 Pgs and 21.5 Pgs and 22.2 Pgs and 22.8 Pgs, the Mchc [2, 4] was 31.4 G/Dl and 29.8 G/Dl and 30.2 G/Dl and 32.1 G/Dl and 31.5 G/Dl and the Mcv [2, 4] was 69.6 fL and 71.6 fL and 71.5 fL and 69.4 fL and 72.5 fL. For the same compound, the Mono [2, 4] was 0.38 10^3/µL and 0.28 10^3/µL and 0.1 10^3/µL and 0.31 10^3/µL, the Mpv [2, 4] was 7.6 fL and 6.9 fL and 7.2 fL and 6.4 fL and the Neut [2, 4] was 3.03 10^3/µL and 1.68 10^3/µL and 2.26 10^3/µL and 1.88 10^3/µL and 0.86 10^3/µL. For the same compound, the Plt [2, 4] was 347 10^3/µL and 388 10^3/µL and 304 10^3/µL and 339 10^3/µL and 367 10^3/µL, the Rbc [2, 4] was 6.68 10^6/µL and 6.09 10^6/µL and 5.43 10^6/µL and 5.88 10^6/µL and 5.74 10^6/µL and the Rdw [2, 4] was 11.4% and 12.7% and 10.8% and 12.3% and 12.2%. The Wbc [2, 4] was 6.07 10^3/µL and 4.69 10^3/µL and 3.69 10^3/µL and 5.83 10^3/µL and 3.99 10^3/µL, the “lymphocytes in the blood” value [2, 5] was “mildly elevated” and the “monocytes in the blood” value [2, 5] was “mildly elevated”. The Baso [2, 6] was 0.01333 10^3/µL, the Eos [2, 6] was 0.09889 10^3/µL and the Hct [2, 6] was 41.4111%. The Hgb [2, 6] was 13.2333 G/Dl, the Lymp [2, 6] was 3.343 10^3/µL and the Mch [2, 6] was 23.5333 Pgs. The Mchc [2, 6] was 31.9611 G/Dl, the Mcv [2, 6] was 73.75 fL and the Mono [2, 6] was 0.2572 10^3/µL. For the same compound, the Mpv [2, 6] was 7.506 fL, the Neut [2, 6] was 2.007 10^3/µL and the Plt [2, 6] was 319.5 10^3/µL. The Rbc [2, 6] was 5.621 10^6/µL, the Rdw [2, 6] was 12.4556% and the Wbc [2, 6] was 5.718 10^3/µL. For the same compound, the Baso [2, 7] was 0.01167 10^3/µL, the Eos [2, 7] was 0.09 10^3/µL and the Hct [2, 7] was 40.5389%. The Hgb [2, 7] was 13.0722 G/Dl, the Lymp [2, 7] was 2.497 10^3/µL and the Mch [2, 7] was 23.6944 Pgs.

— publication PMC9519446, “Discovery of an Orally Active Benzoxaborole Prodrug Effective in the Treatment of Chagas Disease in Non-human Primates” (Nature microbiology, 2022)
